# Reference: patent US20200397855A1, “MODULATION OF PLA2-G1B IN THERAPY” (priority 2018, published 2020)
# Columns and labels:
# [1] = tested on: pSTAT5 NT in CD4 T cells stimulated with IL-7; assay: PLA2-GIB bioassay on CD4 T cells: pSTAT5 nuclear translocation in response to IL-7 (confocal microscopy); type: cell-based, human; details: for effect on nuclear translocation of phosphoSTAT5 (pSTAT5 NT) induced by IL-7: buffer, FIG. 1A; for pSTAT5 NT in response to IL-7: FIG. 2
# Description: Purification of Human CD4 T-lymphocytes—Venous blood was obtained from healthy volunteers through the EFS (Etablissement Francais du Sang, Centre Necker-Cabanel, Paris). CD4 T-cells were purified from whole blood using RosetteSep Human CD4+ T cell Enrichment Cocktail (Stem Cell, 15062). This cocktail contains mouse and rat monoclonal antibodies purified from mouse ascites fluid or hybridoma culture supernatant, by affinity chromatography using protein A or Protein G sepharose. These antibodies are bound in bispecific tetrameric antibody complexes which are directed against cell surface antigens on human hematopoietic cells (CD8, CD16, CD19, CD36, CD56 CD66b, TCRγ/δ) and glycophorin A on red blood cells. The rosetteSep antibody cocktail crosslinks unwanted cells in human whole blood to multiple red blood cells, forming immunorosettes. This increases the density of unwanted cells, such that they pellet along with the free red blood cells when centrifuged over a buoyant density medium such as lymphocytes separation medium (Eurobio, CMSMSL01-01).
# Whole blood was incubated with RosetteSep Human CD4+ T cell Enrichment Cocktail at 50 μl/ml for 20 minutes at room temperature under gentle shaking (100 rpm), diluted with an equal volume of PBS+2% foetal bovine serum (FBS) and mixed gently. The diluted samples were centrifuged 20 minutes at 1200×g on top of lymphocytes separation medium. The enriched cells were then collected from the density medium at plasma interface and washed twice with PBS+2% FBS. Cells were subsequently resuspended in RPMI 1640 medium (Lonza) supplemented with 5% FBS, 50 mM HEPES pH 7.4, glutamine, penicillin, streptomycin and fungizone (complete medium), counted with a Moxi Z mini automated cell counter (ORFLO, MXZ000). Cells suspension was adjusted at 7×10^6 cells/ml and equilibrated at least 2 h at 37° C. in a 5% CO2 humidified atmosphere.
# [2] = tested on: PLA2-GIB activity on the membrane of Jurkat E6.1 T cells; assay: PLA2-GIB enzymatic assay on [3H] arachidonic acid labelled Jurkat E6.1 T cells; type: cell-based, human; details: for PLA2-GIB activity vs scrambled PEP3: pretreatment 21 h
# Description: (§1) Jurkat E6.1 T cells (ECACC 88042803) or gC1qR KO Jurkat E6.1 T cells were incubated for 17 h at 5×10^5 cells/ml with 1 μCi/ml of arachidonic acid [5,6,8,9,11,14,15-^3H(N)] (Perkin Elmer, NET298Z250UC) in RPMI 1640 medium (Lonza) supplemented with 10% FBS, 50 mM HEPES pH 7.4, glutamine, penicillin, streptomycin and fungizone at 2 ml/well in 6-well plates at 37° C. in a 5% CO2 humidified atmosphere. Cells were washed twice with RPMI with 10% FBS by centrifugation at 300×g for 10 minutes at room temperature and then frozen in 90% FBS 10% DMSO at 10^7 cells/ml/vial at −80° C. Percent of [3H] arachidonic acid in CD4 T cells is the (1 minus ratio of [3H] arachidonic acid in the supernatant of CD4 T cells without cells (cpm/ml) on total [3H] arachidonic acid in supernatant and cells (cpm/ml).
# To test PLA2-GIB activity on [3H] arachidonic acid labelled Jurkat E6.1 T lymphocytes, cells were unfrozen in 10% FBS RPMI preheated at 37° C. by centrifugation at 300×g for 10 minutes at room temperature, washed twice in 2.5% FBS RPMI, and equilibrated at 5×10^4 or 10^5 Jurkat E6.1 T cells/400 μl/well in 24-well polystyrene plates for 1 h 30 at 37° C. in a 5% CO2 humidified atmosphere. Then HCV core solution or vehicle dilution in 2.5% FBS RPMI at 5.95 μM was mixed with an equal volume of a PLA2-GIB solution at 630 nM or 2 μM 2.5% FBS RPMI and 100 μl were added per well at the same time for 2 h. For peptide treatments, cells were pretreated for 2 h, 4 h or 21 h, as indicated on figures, with 50 μl per well of peptide solutions at 110 μM or 55 μM in 2.5% FBS RPMI. Then 50 μl per well of PLA2-GIB at 630 nM or 2 μM 2.5% FBS RPMI or medium alone were added for 2 h. Cells and supernatant were collected in eppendorf tubes and centrifuged at 580×g for 10 minutes at room temperature. The [3H] arachidonic acid released in cell supernatant was quantified in 300 μl with 16 ml of Ultima gold (Perkin Elmer, 6013329) in low diffusion vials (Perkin Elmer, 6000477) on a counter (tri-Carb 2800 TR liquid scintillation analyzer, Perkin Elmer).
# gC1qR = target: T1, gC1qR (Homo sapiens, UniProt Q07021); assay: gC1qR-peptides binding assay (ELISA); details: peptide coated on microplate, His-tag-gC1qR 0 to 3 μg/well, FIG. 12
# T1 sequence (Q07021 74-282): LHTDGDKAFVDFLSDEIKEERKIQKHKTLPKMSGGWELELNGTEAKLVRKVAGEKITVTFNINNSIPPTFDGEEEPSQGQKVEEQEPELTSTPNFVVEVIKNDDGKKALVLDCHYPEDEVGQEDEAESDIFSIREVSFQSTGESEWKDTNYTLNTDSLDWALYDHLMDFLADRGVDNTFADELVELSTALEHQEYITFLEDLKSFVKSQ
# Description: The unbound protein was removed; the wells washed 2× with TBST (20 mM Tris-HCl pH 7.5, 150 mM NaCl, and 0.05% Tween-20) and the unreacted sites blocked by incubation (30 min, room temp) with 300 μl of 3% BSA in TBST. After washing (2× with TBST), the microtiter plate bound peptides was incubated (2 h, room temp.) with different amount of His-tag-gC1qR ranging from 0 to 3 μg/well in triplicate. After washing (5 times with TBST), 100 μl of anti-His tag-HRP antibody (1:1000; 71840-3, Merck) in 3% BSA in TBST was added per well and incubated for 2 h at room temperature. Microplates wells were then washed (5 times with TBST) and 100 μl of TMB ELISA substrate standard solution (UP664781, Interchim) was added per well. Reaction was stopped with 100 μl per well of a H2SO4 solution at 0.16M and OD at 450 nm was measured on a microplate reader (Tecan Infinite M1000 Pro).
# [3] = tested on: PLA2-GIB enzymatic activity on CD4 T cells membranes; assay: PLA2-GIB enzymatic assay on [3H] arachidonic acid labelled CD4 T cells; type: cell-based, human
# Description: as §1, with “PLA2-GIB enzymatic assay on [3H] arachidonic acid labelled CD4 T cells or Jurkat” for “Jurkat”, “cells—Purified CD4 T-cells” for “cells (ECACC 88042803) or gC1qR KO Jurkat E6.1 T cells”, “16” for “17”, “2×10^6” for “5×10^5”, “580×g” for “300×g”
# To test PLA2-GIB activity on [3H] arachidonic acid labelled CD4 T lymphocytes, cells were unfrozen in 10% FBS RPMI preheated at 37° C. by centrifugation at 580×g for 10 minutes at room temperature, washed twice in 2.5% FBS RPMI, and equilibrated at 2×10^5 CD4 T cells/400 μl/well in 24-well polystyrene plates for 1 h 30 at 37° C. in a 5% CO2 humidified atmosphere. […] Cells and supernatant were collected in eppendorf tubes and centrifuged at 580×g for 10 minutes at room temperature. The [3H] arachidonic acid released in cell supernatant was quantified in 300 μl with 16 ml of Ultima gold (Perkin Elmer, 6013329) in low diffusion vials (Perkin Elmer, 6000477) on a counter (tri-Carb 2800 TR liquid scintillation analyzer, Perkin Elmer).
# To study PLA2-GIB effect on CD4 T cells membranes we developed a new enzymatic assay in which CD4 T cells are labelled with [3H] arachidonic acid. When these cells are exposed to PLA2-GIB the enzymatic activity on CD4 T cells releases [3H] arachidonic acid. The quantification of [3H] arachidonic acid allowed us to quantify PLA2-GIB activity.
# [4] = peptide alone, without PLA2-GIB, FIG. 5B
molecule,measurement,setting,value
"C1q: Complement component C1q from human serum (Sigma C1740), natural ligand of gC1qR",inhibition of pSTAT5 NT,"[1]; C1q (10 μg/ml) with 5 nM PLA2-GIB, FIG. 6A",75-85%
same,inhibition of pSTAT5 NT,"[1]; C1q alone (10 μg/ml), FIG. 6A",40%
NH2-PWNASWSNKSLDDIW-COOH (H-PWNASWSNKSLDDIW-OH) [PEP3],inhibition of pSTAT5 NT,"[1]; 0.025 μg/ml PEP3 with 5 nM PLA2-GIB, FIG. 5B",18%
same,inhibition of pSTAT5 NT,"[1]; 0.5 μg/ml PEP3 alone, n=3 donors, FIG. 5C",5%
same,inhibition of pSTAT5 NT,"[1]; 2.5 μg/ml PEP3 with 5 nM PLA2-GIB, FIG. 5B",51%
same,effect on pSTAT5 NT,[1]; [4],no effect
same,PLA2-GIB activity vs scrambled PEP3,"[2]; WT Jurkat E6.1 cells, FIG. 13",increased significantly
same,PLA2-GIB activity on the membrane of Jurkat E6.1 T cells vs scrambled PEP3,"[2]; pretreatment 4 h or more, peptide 11 μM, 200 nM PLA2-GIB, FIG. 11",significantly increased
same,binding to gC1qR,gC1qR,binds to gC1qR
"NH2-PWNATWTQRTLDDIW-COOH (H-PWNATWTQRTLDDIW-OH) [CTL peptide, control peptide (CTL), reference compound]",effect on pSTAT5 NT,[1]; [4],no effect
same,effect on pSTAT5 NT,"[1]; peptide with 5 nM PLA2-GIB, FIG. 5B",no effect
same,binding to gC1qR,gC1qR,essentially do not
NH2-SGEGGWSNGSLVDIM-COOH (H-SGEGGWSNGSLVDIM-OH) [HP Pg],PLA2-GIB activity vs scrambled PEP3,"[2]; 200 nM PLA2-GIB, FIG. 15",significantly increased
"NH2-WNWDSKILSDPAWNS-COOH (H-WNWDSKILSDPAWNS-OH) [Scrambled PEP3, Scrambled PEP3 control peptide]",binding to gC1qR,gC1qR,essentially do not
"PLA2-GIB: Recombinant human group IB pancreatic phospholipase A2, produced in E. coli or CHO-S (SEQ ID NO: 1)",effect on nuclear translocation of phosphoSTAT5 (pSTAT5 NT) induced by IL-7,[1]; 5 nM PLA2-GIB alone,does not affect
same,pSTAT5 NT in response to IL-7,"[1]; 5 nM PLA2-GIB, compared with no PLA2-GIB",biologically similar
same,inhibition of pSTAT5 NT,"[1]; 75 nM PLA2-GIB alone, FIG. 4",49%
same,effect on nuclear translocation of phosphoSTAT5 (pSTAT5 NT) induced by IL-7,[1]; 75 nM PLA2-GIB alone,significantly decreases
same,pSTAT5 NT in response to IL-7,[1]; 75 nM PLA2-GIB,50%
same,inhibition of pSTAT5 NT,"[1]; 250 nM PLA2-GIB alone, FIG. 4",79%
same,pSTAT5 NT in response to IL-7,[1]; 250 nM PLA2-GIB,10%
"HCV core protein: Recombinant HCV core protein (Prospec HCV-011), SEQ ID NO: 43 (protein, not fully specified; X: residue not identified in the source) MSTNPKPQRKTKRNTIRRPQDVKFPGGGQIVGGVYLLPRRGPRLGVRATRKTSERSQPRGRRQPIPKARRPEGRTWAQPGYPWPLYGNEGMGWAGWLLSPRGSRPSWGPTDPRRRSRNLGKVIDTLTCGFADLMGYVPLVGAPLGGAARALAHGVRALEDGVNYATGNLPGCSFSISLWXLLSCLTIPASA",release of [3H] arachidonic acids by CD4 T cells,"[3]; 10 μg/ml HCV core protein alone, FIG. 8B",slightly and significantly increases
same,fold increase of PLA2-GIB activity,"[3]; 10 μg/ml HCV core protein, 63 nM PLA2-GIB, FIG. 8A",26 fold
same,fold increase of PLA2-GIB activity,"[3]; 10 μg/ml HCV core protein, 63 nM PLA2-GIB, n=3 donors, FIG. 8B",26 fold
same,fold increase of PLA2-GIB activity,"[3]; 10 μg/ml HCV core protein, 200 nM PLA2-GIB, FIG. 8A",16 fold
same,fold increase of PLA2-GIB activity,"[3]; 10 μg/ml HCV core protein, 200 nM PLA2-GIB, n=3 donors, FIG. 8B",16 fold
same,fold increase of PLA2-GIB activity,"[3]; 20 μg/ml HCV core protein, 63 nM PLA2-GIB, FIG. 8A",36 fold
same,fold increase of PLA2-GIB activity,"[3]; 20 μg/ml HCV core protein, 200 nM PLA2-GIB, FIG. 8A",26 fold
same,release of [3H] arachidonic acids by CD4 T cells,"[3]; HCV core protein alone at 10 and 20 μg/ml, FIG. 8A",slightly induces
same,PLA2-GIB activity on the membrane of Jurkat E6.1 T cells,"[2]; HCV core 595 nM (10 μg/ml), FIG. 14",significantly increased
